Reference: PMC9636434, “Discovery of small molecule agonists of the Relaxin Family Peptide Receptor 2” (Communications Biology, 2022)
Values joined by “and” are separate entries in the source; they are usually repeats but may differ in a detail not shown here. Equal values may be shown once.

How the values were obtained:
Type in all cases: cell-based
mouse RXFP1 = biological target: T1, mouse RXFP1 (Mus musculus, UniProt Q6R6I7); assay: HTRF cAMP counter-screen in HEK293T cells expressing mouse RXFP1; settings: for % Eff (cAMP): mouse RXFP1, experiments (1)-(3)
T1 construct: FLAG (N); expressed in transfected cells
T1 sequence (Q6R6I7 1-758): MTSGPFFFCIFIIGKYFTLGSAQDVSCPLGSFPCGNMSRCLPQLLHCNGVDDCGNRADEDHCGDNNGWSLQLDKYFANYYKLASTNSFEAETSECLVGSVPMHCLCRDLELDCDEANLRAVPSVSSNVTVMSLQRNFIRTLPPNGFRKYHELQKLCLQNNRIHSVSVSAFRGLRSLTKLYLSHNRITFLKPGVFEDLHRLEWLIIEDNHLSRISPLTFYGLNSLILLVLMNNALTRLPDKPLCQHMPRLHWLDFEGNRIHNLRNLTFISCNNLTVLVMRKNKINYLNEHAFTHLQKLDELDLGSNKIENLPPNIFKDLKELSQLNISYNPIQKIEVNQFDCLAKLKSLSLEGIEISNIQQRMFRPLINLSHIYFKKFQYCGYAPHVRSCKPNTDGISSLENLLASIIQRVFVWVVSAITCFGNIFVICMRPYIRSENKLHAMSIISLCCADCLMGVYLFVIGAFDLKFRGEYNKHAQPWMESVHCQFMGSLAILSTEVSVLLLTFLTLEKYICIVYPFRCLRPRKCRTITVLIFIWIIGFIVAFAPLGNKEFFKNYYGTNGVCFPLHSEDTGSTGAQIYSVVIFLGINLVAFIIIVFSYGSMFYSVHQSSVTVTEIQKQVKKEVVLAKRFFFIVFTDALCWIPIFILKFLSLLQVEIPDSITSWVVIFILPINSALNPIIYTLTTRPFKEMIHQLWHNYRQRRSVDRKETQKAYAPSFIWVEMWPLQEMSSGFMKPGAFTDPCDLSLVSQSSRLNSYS
Procedure: The HTRF Gs dynamic cAMP assay kit (CisBio, Bedford, MA) was used to measure intracellular cAMP accumulation in HEK293T cells (ATCC, Manassas, VA)[56]. […] The cell stock was verified mycoplasma free and authenticated by ATCC. Transient transfection was accomplished by treating cells in a 6-well plate with a mixture of 2 μg plasmid and 6 μL Lipofectamine 2000 (Invitrogen, Waltham, MA) per manufacturer’s protocol and incubating overnight. For cAMP measurement in 96-well format, HEK293T cells stably transfected with human RXFP2 (HEK-RXFP2), human RXFP1 (HEK-RXFP1), mouse Rxfp1 (HEK-Rxfp1) or transiently transfected with human RXFP1-RXFP2 chimeric receptors were seeded between 7500 and 30,000 cells per well, depending on cell line responsiveness, in serum-free DMEM medium and incubated overnight at 37 °C, 5% CO2. After 18 h, cells were treated with a titration of compound, 2 μM forskolin, or DMSO vehicle. Control wells were also treated with a titration of INSL3 (Phoenix Pharmaceuticals, Burlingame, CA) or human recombinant relaxin 2 (Peprotech, Cranbury, NJ). For the RXFP2 antagonist experiment, cells were co-treated with 0.28 μM compound or 30 nM INSL3 and a titration of the INSL3 B dimer antagonist[38],[39]. For the INSL3 allosteric modulation experiment, cells were co-treated with 0.025, 0.0025, or 0.00025 μM of compound and a titration of INSL3. Cells were incubated for 1 h at 37 °C, 5% CO2, and then kit cAMP-d2 and anti-cAMP antibody were added per manufacturer protocol. Plates were incubated for 1 h at room temperature and the signal was read on a CLARIOstar plate reader (BMG Labtech, Ortenberg, Germany) at 665 and 620 nm emission wavelengths. […]
receptors. HTRF cAMP counter-screen of RXFP2 agonists in HEK293T cells expressing a human RXFP1 and b mouse RXFP1. Relaxin 2 was used as positive control for RXFP1 receptor activation. Results are expressed as mean ± SEM of 3

human ADORA1 = biological target: T2, human ADORA1 (Homo sapiens, UniProt P30542); assay: GloSensor cAMP inhibition assay in ADORA1 transiently transfected HEK293T cells; settings: for RLU: replicates (1)-(4)
T2 sequence (P30542 1-326): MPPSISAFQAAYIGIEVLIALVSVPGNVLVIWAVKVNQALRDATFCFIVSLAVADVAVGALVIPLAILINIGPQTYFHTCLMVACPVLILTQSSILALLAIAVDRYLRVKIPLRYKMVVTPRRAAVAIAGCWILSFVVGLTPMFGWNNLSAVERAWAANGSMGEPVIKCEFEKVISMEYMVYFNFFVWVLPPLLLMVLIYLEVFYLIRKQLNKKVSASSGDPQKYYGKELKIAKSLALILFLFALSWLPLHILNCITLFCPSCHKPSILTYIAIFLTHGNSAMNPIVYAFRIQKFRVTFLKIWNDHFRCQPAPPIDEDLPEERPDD
Procedure: β-arrestin is an important GPCR adaptor protein that mediates several receptor processes including signaling, desensitization, and trafficking. […] GPCR-mediated β-arrestin recruitment for a panel of 320 human GPCRs was studied in transiently transfected HTLA cells treated with 10 µM compound. The results for all 320 GPCRs tested are summarized in Supplementary Data 1. […] ADORA1 activation by an agonist results in Gαi protein binding, an inhibition of adenylate cyclase and, therefore, a decrease in the cAMP concentration.
Experiments to analyze the cAMP response in RXFP3, RXFP4, and ADORA1 transiently transfected HEK293T cells was performed in the National Institute of Mental Health’s Psychoactive Drug Screening Program, Contract #HHSN-271-2018-00023-C (NIMH PDSP).
ADORA1 activation. cAMP in HEK293T cells transiently transfected with human
ADORA1 was induced by treatment with 0.1 µM of isoproterenol. cAMP inhibition is
Results are reported as raw
RLU values and represent the mean ± SEM of 4 technical replicates.
(1 picture or pasted object on this page, not shown here)

human LHCGR = human LHCGR (Homo sapiens, UniProt P22888); assay: HitHunter cAMP XS+ assay, cAMP Hunter cell line LHCGR; settings: for RLU: replicates (1),(2)
Text: Results are reported as raw RLU values and represent the
mean ± SEM of 2 technical replicates.

human LHCGR, sequence (P22888 27-699): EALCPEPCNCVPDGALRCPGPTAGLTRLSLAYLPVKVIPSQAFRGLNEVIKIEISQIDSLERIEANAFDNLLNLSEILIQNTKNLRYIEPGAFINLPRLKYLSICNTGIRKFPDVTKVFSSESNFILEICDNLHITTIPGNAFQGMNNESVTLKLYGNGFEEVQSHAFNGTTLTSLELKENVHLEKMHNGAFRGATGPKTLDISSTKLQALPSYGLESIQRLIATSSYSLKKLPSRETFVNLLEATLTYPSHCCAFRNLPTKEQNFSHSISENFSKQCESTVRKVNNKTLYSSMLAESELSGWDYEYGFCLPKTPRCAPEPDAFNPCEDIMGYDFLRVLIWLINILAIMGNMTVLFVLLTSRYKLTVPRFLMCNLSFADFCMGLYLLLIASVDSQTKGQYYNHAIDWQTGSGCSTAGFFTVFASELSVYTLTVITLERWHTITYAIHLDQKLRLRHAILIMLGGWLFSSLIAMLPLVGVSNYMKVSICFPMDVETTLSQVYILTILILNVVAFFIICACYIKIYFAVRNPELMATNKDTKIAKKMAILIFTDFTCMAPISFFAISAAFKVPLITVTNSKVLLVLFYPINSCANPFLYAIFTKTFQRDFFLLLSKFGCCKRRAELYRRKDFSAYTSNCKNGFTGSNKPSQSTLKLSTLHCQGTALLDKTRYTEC

O=C1Nc2ccc(-c3cc(C(F)(F)F)cc(C(F)(F)F)c3)cc2C(=O)N2CCN(C(=O)COc3ccc(OC(F)(F)F)cc3I)C[C@@H]12 [compound 6641]
activation of mouse RXFP1 receptor (mouse RXFP1; HTRF cAMP): do not activate
% Eff (cAMP) (mouse RXFP1; Log [M] -4.60): -2.207% and -2.077% and -4.472%
% Eff (cAMP) (mouse RXFP1; Log [M] -5.60): -1.251% and -0.3652% and -2.403%
% Eff (cAMP) (mouse RXFP1; Log [M] -6.60): -1.454% and 0.6194% and -2.041%
% Eff (cAMP) (mouse RXFP1; Log [M] -7.60): -0.3802% and -0.7758% and -2.5668%
RLU (human ADORA1; Log [M] -5): 501.695 RLU and 432.184 RLU and 479.802 RLU
RLU (human ADORA1; Log [M] -5.52): 440.941 RLU and 426.71 RLU and 354.463 RLU and 361.031 RLU
RLU (human ADORA1; Log [M] -6): 417.406 RLU and 427.258 RLU and 437.11 RLU and 429.447 RLU
RLU (human ADORA1; Log [M] -6.52): 436.015 RLU and 453.53 RLU and 363.767 RLU and 397.155 RLU
RLU (human ADORA1; Log [M] -7): 393.323 RLU and 486.917 RLU and 461.192 RLU and 440.394 RLU
RLU (human ADORA1; Log [M] -7.52): 405.912 RLU and 426.71 RLU and 325.454 RLU and 420.142 RLU
RLU (human ADORA1; Log [M] -8): 517.02 RLU and 436.015 RLU and 373.619 RLU and 451.34 RLU
RLU (human ADORA1; Log [M] -8.52): 377.126 RLU and 431.072 RLU and 331.699 RLU and 385.644 RLU
RLU (human ADORA1; Log [M] -9): 420.424 RLU and 419.005 RLU and 360.091 RLU and 409.777 RLU
RLU (human ADORA1; Log [M] -9.52): 407.648 RLU and 406.938 RLU and 409.777 RLU and 342.346 RLU
cAMP inhibition in ADORA1-HEK293T transfected cells (human ADORA1; cAMP induced by 0.1 µM isoproterenol): failed to detect any significant changes
cAMP response through LHCGR (human LHCGR; Hit Hunter cAMP assay): did not result in an increase of cAMP level
RLU (human LHCGR; Log [M] -4.70): 1280 RLU and 1080 RLU
RLU (human LHCGR; Log [M] -5.18): 1000 RLU
RLU (human LHCGR; Log [M] -5.65): 1080 RLU and 1000 RLU
RLU (human LHCGR; Log [M] -6.13): 1080 RLU
RLU (human LHCGR; Log [M] -6.61): 1040 RLU
RLU (human LHCGR; Log [M] -7.08): 1200 RLU and 920 RLU
RLU (human LHCGR; Log [M] -7.56): 1000 RLU
RLU (human LHCGR; Log [M] -8.04): 960 RLU and 680 RLU
RLU (human LHCGR; Log [M] -8.52): 1040 RLU
RLU (human LHCGR; Log [M] -8.99): 960 RLU and 1040 RLU
